Experimental data from US10544190B2, “Peptide that supresses binding of beta-amyloid and rage” (ENSOL BIOSCIENCES INC., priority 2016, dated 2020).
Where a SMILES comes first, the peptide text is derived from it. Where no end group is shown, it is not given here.

Experiments:
beta-amyloid 1-42 [1] = test: Inhibition of entry of beta-amyloid 1-42 into brain II (ELISA of brain); type: in vivo; conditions: ICR mice, peptide 25 mg/kg intraperitoneally; for Beta-amyloid 1-42 concentration in brain: 20 min before i.v. 25 μM beta-amyloid 1-42, control group 60.8 ± 14.8, normal group 0.0 ± 11.9
Protocol: Based on the test results of Example 1, the following test was conducted in order to evaluate whether Example 2 and Comparative Examples 1 and 2, in addition to Example 1, are effective at inhibiting the entry of beta-amyloid 1-42 into the brain.
Specifically, 1 mg ofbeta-amyloid 1-42 (American Peptide Company, Sunnyvale, Calif., USA) was added with 2 ml of hexafluoroisopropanol (HFIP), allowed to stand at room temperature for 3 days, and aliquoted at 100 μl each into tubes. After evaporation of hexafluoroisopropanol (HFIP) using a speed vacuum, 10 μl of an anhydrous DMSO (dimethyl sulfoxide) solution was placed in one of the aliquoted tubes, so as to realize sufficient dissolution, after which 400 μl of phosphate buffer saline (PBS) was added thereto, thus preparing a 25 μM beta-amyloid 1-42 solution.
ICR mice (The Jackson Laboratory, Bar Harbor, Me., USA) were divided into a normal group, a control group and four test groups. The respective test groups were intraperitoneally administered with the peptide of each of Example 1, Example 2, Comparative Example 1, and Comparative Example 2 in amounts of 25 mg/kg, and the control group was treated in the same manner as in the test group, with the exception that an excipient (10% DMSO in saline, 10 ml/kg) was used in lieu of the peptide. After 20 min, the control group and the test groups were intravenously (i.v.) injected through the tail vein with 400 μl of 25 μM beta-amyloid 1-42. Furthermore, the normal group was treated in the same manner as in the control group, with the exception that beta-amyloid 1-42 was not added. 10 min after the tail venous injection of beta-amyloid, about 50 μl of blood was collected from the infraorbital vein of each mouse using a sodium-heparinized capillary tube, after which the mouse was immediately subjected to euthanasia with carbon dioxide (CO2) gas and then the right hemisphere of the mouse was extracted and stored in liquid nitrogen. All the collected blood samples were centrifuged at 13,000 rpm for 10 min. The supernatant was isolated, placed in the prepared tube, and diluted at 1/4000, followed by ELISA (Enzyme-Linked ImmunoSorbent Assay or Enzyme-Linked ImmunoSpecific Assay) ofbeta-amyloid 1-42.
The frozen right hemisphere was added with 3 ml of a RIPA buffer (Radio Immuno Precipitation Assay buffer), sonicated, and centrifuged, after which the supernatant was isolated, followed by protein concentration measurement through BCA assay (bicinchoninic acid assay). BCA assay was performed in accordance with the kit (Thermo Scientific, Waltham, Mass., USA, Cat. No. 23227) protocol. The beta-amyloid 1-42 concentration in the brain was measured through ELISA in a RIPA-homogenate. ELISA was performed in accordance with the kit (IBL International, Hamburg, Germany, Code No. 27711) protocol.

beta-amyloid 1-42 [2] = test: Inhibition of entry of blood beta-amyloid 1-42 into brain I (ELISA of brain and plasma); type: in vivo; conditions: ICR mice; for beta-amyloid 1-42 concentration in the brain: 20 min before i.v. 400 μl of 25 μM beta-amyloid 1-42, brain taken 10 min after
Protocol: The inhibition of entry of blood beta-amyloid 1-42 into the brain by the peptide of Example 1 was experimentally verified. Specifically, in order to evaluate the effect of the peptide of Example 1 on inhibiting the entry of beta-amyloid 1-42 into the brain, which is the cause of Alzheimer's disease, 1 mg of beta-amyloid 1-42 (American Peptide Company, Sunnyvale, Calif., USA) was added with 2 ml of hexafluoroisopropanol (HFIP), allowed to stand at room temperature for 3 days, and aliquoted at 100 μl each into tubes. After evaporation of hexafluoroisopropanol (HFIP) using a speed vacuum, 10 μl of an anhydrous DMSO (dimethyl sulfoxide) solution was placed in one of the aliquoted tubes, so as to realize sufficient dissolution, after which 400 μl of phosphate buffer saline (PBS) was added thereto, thus preparing a 25 μM beta-amyloid 1-42 solution.
ICR mice (The Jackson Laboratory, Bar Harbor, Me., USA) were divided into a normal group, a control group and two test groups. The respective test groups were intraperitoneally administered with the peptide of Example 1 in amounts of 2.5 mg/kg and 25 mg/kg, and the control group was treated in the same manner as in the test group, with the exception that an excipient (10% DMSO in saline, 10 ml/kg) was used in lieu of the peptide of Example 1. After 20 min, the control group and the test groups were intravenously (i.v.) injected through the tail vein with 400 μl of 25 μM beta-amyloid 1-42. Furthermore, the normal group was treated in the same manner as in the control group, with the exception that beta-amyloid 1-42 was not added. […]
The frozen right hemisphere was added with 3 ml of a RIPA buffer (Radio Immuno Precipitation Assay buffer), sonicated, and centrifuged, after which the supernatant was isolated, followed by protein concentration measurement through BCA assay (bicinchoninic acid assay). […] The beta-amyloid 1-42 concentration in the brain was measured through ELISA in a RIPA-homogenate. […]

[3] = system: double transgenic mouse (DTg mouse) models having induced human Alzheimer's disease; test: Learning and memory recovery, Y-maze test in Alzheimer's model mice; type: in vivo; conditions: 50 mg/kg intraperitoneally once a day, 5 times a week, test 10 weeks after administration, control 49.44±3.88%, P<0.01
Source text: The learning and memory recovery effects of the peptide of Example 1 were experimentally verified. Specifically, in order to evaluate the effect of the peptide of Example 1 on inhibiting learning and memory reduction, which are symptoms of Alzheimer's disease, 30-week-old double transgenic mouse (DTg mouse, Jackson Laboratory, USA) models having induced human Alzheimer's disease, obtained in a manner in which a human-derived gene of beta-amyloid precursor protein APP (APPsw; amyloid mutation) having Swedish mutation and a human-derived gene in the form of exon-9 deletion of a gamma secretase PSI gene were over-expressed in the brain through genetic manipulation, were used for tests.
The test animals were acclimated in an animal room after purchase in accordance with the Guidelines for Experimental Animal Tests and treated in accordance with the approved Animal Experimental Plan. The test conditions were maintained at a temperature of 23±1° C. and a humidity of 50±5%, and the light/dark cycle was 12 hr ([…]). During the testing, animals were free to consume water and feed. […]
The Y-maze test is an experiment to observe the voluntary tendency of an animal to search a new environment using short-term memory ability. […] Spontaneous alternation (%) was calculated using the following equation. […]

beta-amyloid 1-42 [4] = test: Biomarker change in animal models: brain beta-amyloid 1-42 by ELISA; type: in vivo, DTg mouse; conditions: DTg mice, 50 mg/kg intraperitoneally for 13 weeks; control 76.03±25.63
Protocol: (§1) In order to evaluate the effect of changing the biomarker using animal models in which an administration period of a total of 13 weeks was terminated in the <Evaluation of learning and memory recovery effects using animal models> test, the following test was conducted. After termination of intraperitoneal administration for a total of 13 weeks, the animal models were subjected to euthanasia using carbon dioxide (CO2) and the brain thereof was immediately extracted. Upon brain extraction, the entire brain was taken out so as not to be scratched, and was then lightly washed with saline solution. […]
(§2) The left hemisphere stored in a deep freezer at −80° C. was placed in a RIPA buffer (Radio Immuno Precipitation Assay buffer) and sonicated, thus preparing a brain homogenate. Thereafter, the amount of protein was measured through BCA assay (BicinChoninic Acid assay). […] The biomarker expression level was measured through ELISA, and ELISA assay was performed in accordance with the kit{Amyloid-beta(1-42) Elisa kit: IBL International, Hamburg, Germany (27711), TNF-alpha ELISA kit: Koma Biotech, Seoul, Korea (K0331186P), GFAP Elisa kit: Millipore Corporation, Billerica, Mass., USA (NS830)} protocol. […]
(§3) The biomarkers measured through ELISA were beta-amyloid 1-42, TNF-alpha, and GFAP (glial fibrillary acidic protein). […]

TNF-alpha = test: Biomarker change in animal models: brain TNF-alpha by ELISA; type: in vivo, DTg mouse; conditions: DTg mice, 50 mg/kg intraperitoneally for 13 weeks; control 1109.91±285.30; p<0.05
Protocol: as §1, §2, §3

[5] = system: GFAP (glial fibrillary acidic protein); test: Biomarker change in animal models: brain GFAP by ELISA; type: in vivo, DTg mouse; conditions: DTg mice, 50 mg/kg intraperitoneally for 13 weeks; control 70.61±26.82
Protocol: as §1, §2, §3

Row | Molecule | entry of beta-amyloid into the brain (result in words) (beta-amyloid 1-42 [1]) | Beta-amyloid 1-42 concentration in brain (beta-amyloid 1-42 [1]) | beta-amyloid 1-42 concentration in the brain (beta-amyloid 1-42 [2]; peptide 2.5 mg/kg intraperitoneally) | beta-amyloid 1-42 concentration in the brain (beta-amyloid 1-42 [2]; peptide 25 mg/kg intraperitoneally) | plasma beta-amyloid levels versus control group (beta-amyloid 1-42 [2]; peptide 2.5 and 25 mg/kg intraperitoneally, blood 10 min after i.v. beta-amyloid 1-42) | spontaneous alternation (Y-maze test) [3] | beta-amyloid 1-42 concentration in brain homogenate (beta-amyloid 1-42 [4]) | TNF-alpha concentration in brain homogenate (TNF-alpha) | GFAP concentration in brain homogenate [5]
1 | N[C@@H](CC(=O)O)C(=O)NCC(=O)N[C@@H](CCC(=O)O)C(=O)N[C@@H](Cc1ccccc1)C(=O)O [Example 2, DGEF] (H-DGEF-OH; N-terminus and C-terminus assumed) | effectively inhibited | 48.8 ± 14.7 pg/mg protein |  |  |  |  |  |  | 
2 | DAEF [Comparative Example 1] | did not inhibit | 69.5 ± 6.1 pg/mg protein |  |  |  |  |  |  | 
3 | DGEFF [Example 1, DGEFF] |  | 54.8 ± 8.0 pg/mg protein | 195.5 ± 5.6 pg/mg | 187.8 ± 2.4 pg/mg | not greatly different | 63.22±2.56% | 57.56±28.47 ng/mg protein | 798.99±172.90 pg/mg protein | 47.63±24.92 ng/mg protein
4 | VKMDAEFR [Comparative Example 2] | did not inhibit | 87.6 ± 14.9 pg/mg protein |  |  |  |  |  |  | 
